# Literature values as cited in patent US10709795B2, “Method for delivering pharmaceutical nanoparticles to cancer cells” (National Guard Health Affairs, priority 2017, dated 2020).
# Like-named read-outs stand apart in the source and are kept apart here.
# Legend:
# [1] = not given; remark: listed apart in the source
# [2] = Grades 1-4, N = 2448, 1st line of this name
# [3] = Grades 1-4, N = 2448, 2nd line of this name
compound,measurement,setting,value
"N#Cc1ccc(C(c2ccc(C#N)cc2)n2cncn2)cc1 [Femara, Letrozole]","Endometrial Hyperplasia/Cancer, %","Grades 1-4, 1st line of this name",0.8%
same,"Endometrial Hyperplasia/Cancer, %","Grades 1-4, 2nd line of this name",0.3%
same,"Alopecia, %","Grades 1-4, N = 2448",3.4%
same,"Angina, %","Grades 1-4, N = 2448",1.3%
same,"Angine, %","Grades 1-4, N = 2448",1.1%
same,"Anorexia, %","Grades 1-4, N = 2448",1.5%
same,"Arthralgia/Arthritis, %","Grades 1-4, N = 2448",25.2%
same,"Back pain, %","Grades 1-4, N = 2448",5.1%
same,"Bone Pain, %","Grades 1-4, N = 2448",5.0%
same,"Breast Pain, %","Grades 1-4, N = 2448",2.0%
same,"Cataract, %","Grades 1-4, N = 2448",2.0%
same,"Constipation, %","Grades 1-4, N = 2448",2.0%
same,"Depression, %","Grades 1-4, N = 2448",4.9%
same,"Dizziness/Light headedness, %","Grades 1-4, N = 2448",3.4%
same,"Edema, %","Grades 1-4, N = 2448",6.7%
same,"Endometrial proliferation Disorders, %","Grades 1-4, N = 2448",0.3%
same,"Fatigue (Lethargy, Malaise, Asthenia), %","Grades 1-4, N = 2448",9.6%
same,"Headache, %","Grades 1-4, N = 2448",4.3%
same,"Hot Flashes/Flushes, %","Grades 1-4, N = 2448",33.5%
same,"Hypercholesterolemia, %","Grades 1-4, N = 2448",52.3%
same,"Myalgia, %","Grades 1-4, N = 2448",8.9%
same,"Myocardial Ischemia, %","Grades 1-4, N = 2448",0.2%
same,"Nausea, %","Grades 1-4, N = 2448",11.6%
same,"Night Sweats, %","Grades 1-4, N = 2448",25.2%
same,"Osteopenia, %","Grades 1-4, N = 2448",3.6%
same,"Osteoporosis NOS, %","Grades 1-4, N = 2448",5.1%
same,"Other Endometrial Disorders, %","Grades 1-4, N = 2448",<0.1%
same,"Pain in extremity, %","Grades 1-4, N = 2448",4.2%
same,"Pts with any adverse event, %","Grades 1-4, N = 2448",94.4%
same,"Vaginal Bleeding, %","Grades 1-4, N = 2448",5.2%
same,"Vaginal Irritation, %","Grades 1-4, N = 2448",4.5%
same,"Vomiting, %","Grades 1-4, N = 2448",3.3%
same,"Weight Decrease, %","Grades 1-4, N = 2448",5.7%
same,"Weight Increase, %","Grades 1-4, N = 2448",13.8%
same,"Bone Fractures, %",[2],14.6%
same,"Cerebrovascular Accident, %",[2],2.1%
same,"Myocardial Infarction, %",[2],1.0%
same,"Other Cardiovascular1, %",[2],10.6%
same,"Second Malignancies, %",[2],2.2%
same,"Thromboembolic Event, %",[2],2.1%
same,"Bone Fractures, %",[3],10.1%
same,"Cerebrovascular Accident, %",[3],2.9%
same,"Myocardial Infarction, %",[3],1.5%
same,"Other Cardiovascular1, %",[3],12.7%
same,"Second Malignancies, %",[3],4.2%
same,"Thromboembolic Event, %",[3],2.9%
same,"Anorexia, %","Grades 3-4, N = 2448",<0.1%
same,"Arthralgia/Arthritis, %","Grades 3-4, N = 2448",3.5%
same,"Back pain, %","Grades 3-4, N = 2448",0.3%
same,"Bone Pain, %","Grades 3-4, N = 2448",0.2%
same,"Breast Pain, %","Grades 3-4, N = 2448",<0.1%
same,"Cataract, %","Grades 3-4, N = 2448",0.7%
same,"Constipation, %","Grades 3-4, N = 2448",0.1%
same,"Depression, %","Grades 3-4, N = 2448",0.7%
same,"Dizziness/Light headedness, %","Grades 3-4, N = 2448",<0.1%
same,"Edema, %","Grades 3-4, N = 2448",0.1%
same,"Fatigue (Lethargy, Malaise, Asthenia), %","Grades 3-4, N = 2448",0.2%
same,"Headache, %","Grades 3-4, N = 2448",0.4%
same,"Hypercholesterolemia, %","Grades 3-4, N = 2448",0.4%
same,"Myalgia, %","Grades 3-4, N = 2448",0.7%
same,"Nausea, %","Grades 3-4, N = 2448",0.2%
same,"Osteoporosis NOS, %","Grades 3-4, N = 2448",0.4%
same,"Pain in extremity, %","Grades 3-4, N = 2448",0.1%
same,"Pts with any adverse event, %","Grades 3-4, N = 2448",25.9%
same,"Vaginal Bleeding, %","Grades 3-4, N = 2448",<0.1%
same,"Vaginal Irritation, %","Grades 3-4, N = 2448",<0.1%
same,"Vomiting, %","Grades 3-4, N = 2448",0.1%
same,"Weight Decrease, %","Grades 3-4, N = 2448",0.3%
same,"Weight Increase, %","Grades 3-4, N = 2448",1.1%
same,water solubility (in words),[1],water insoluble
